Measured values from patent publication US3956495A, “2,4-Diaminoquinazolines as antithrombotic agents” (Eli Lilly and Company, priority 1973, dated 1976).
Counter-ions that a name gives are not always drawn.

Key:
[1] = system: collagen-induced aggregation (platelet); assay: Collagen-induced platelet aggregation inhibition, in vitro test (Table I); format: cell-based; settings: for inhibition at 41.7 µg/mL: 41.7 μg/ml; for inhibition at 10.4 µg/mL: 10.4 μg/ml; for inhibition at 167 µg/mL: 167 μg/ml
Text: (§1) Exp. Biol. Med., 135, 100 (1970), and references cited therein.

[2] = system: platelet aggregation to collagen challenge; assay: Platelet aggregation inhibition to collagen challenge, in vivo-in vitro test after oral administration (Table II); design: species or system guinea pig; settings: stock suspension 1:4, blood one hour and three hours after dosing
Description: Briefly, the test procedure is as follows: blood samples are obtained from a guinea pig prior to the oral administration of the test compound. The test compound when is administered orally and blood samples withdrawn one hour and three hours after dosing. Each blood sample is treated as described in the in vitro test. The test requires one control group of six animals and six animals per compound per dose. For a more detailed description, see Herrmann et al., Proc. Soc. Exp. Biol. Med., 139, 548 (1972).

[3] = system: ADP-induced aggregation (platelet); assay: ADP-induced platelet aggregation inhibition, in vitro test (Table I); format: cell-based; settings: for inhibition at 167 µg/mL: 167 μg/ml
Text: as §1

[4] = Platelet, collagen stock suspension 1:4
[5] = Platelet, collagen stock solution 1:32
[6] = Platelet, 83.4 μg/ml, collagen stock suspension 1:4

Work on c1ccc2c(N3CCCCC3)nc(N3CCCCC3)nc2c1 [2,4-bispiperidinoquinazoline] yielded an inhibition at 41.7 µg/mL [1, 4] of at least 20% and an inhibition at 50 mg/kg ([2]; Cavia porcellus, Platelet, 50 mg/kg) of at least 20%.

Work on CCN(CC)CCNc1nc(N2CCCC2)nc2ccccc12 [2-pyrrolidinyl-4-(2-diethylaminoethylamino)quinazoline] yielded an inhibition at 10.4 µg/mL ([1]; Platelet, collagen stock suspension undiluted) of at least 20% and an inhibition at 20.8 µg/mL ([1]; Platelet, 20.8 μg/ml, collagen stock suspension 1:4) of at least 20%.

With Cc1ccc2nc(N3CCCCC3)nc(N3CCCCC3)c2c1 [2,4-bispiperidino-6-methylquinazoline] the inhibition at 167 µg/mL [1, 5] was 21% and the inhibition at 167 µg/mL [3] was 5%.

For c1ccc2c(N3CCOCC3)nc(N3CCOCC3)nc2c1 [2,4-bismorpholinoquinazoline], the inhibition at 10.4 µg/mL [1, 4] was 35% and the inhibition at 5.2 µg/mL ([3]; 5.2 μg/ml) was 51%.

c1ccc2c(NC34CC5CC(CC(C5)C3)C4)nc(N3CCOCC3)nc2c1 [2-morpholino-4-(1-adamantylamino)quinazoline hydrochloride] was tested, and the inhibition at 83.4 µg/mL [1, 6] was at least 20%.

In the case of CN1CCN(c2nc(N3CCOCC3)c3ccccc3n2)CC1 [2-(4-methylpiperazinyl)-4-morpholinoquinazoline], the inhibition at 2.6 µg/mL ([1]; Platelet, 2.6 μg/ml, collagen stock solution 1:32) is reported as 30% and the inhibition at 83 µg/mL ([3]; 83 μg/ml) is reported as 44%.

CCN(CC)CCNc1nc(N2CCOCC2)nc2ccccc12 [2-morpholino-4-(2-diethylaminoethylamino)quinazoline hydrochloride] gave an inhibition at 41.7 µg/mL [1, 4] of at least 20% and an inhibition at 100 mg/kg ([2]; Cavia porcellus, Platelet, 100 mg/kg) of at least 20%.

Clc1ccc2nc(N3CCOCC3)nc(N3CCOCC3)c2c1 [2,4-bismorpholino-6-chloroquinazoline] gave an inhibition at 167 µg/mL [1, 5] of 25% and an inhibition at 167 µg/mL [3] of 3%.

CN(C)c1nc(N(C)C)c2ccccc2n1 [2,4-bis(dimethylamino)quinazoline] was tested, and the inhibition at 41.7 µg/mL [1, 4] was at least 20%.

For CN1CCN(c2nc(N3CCOCC3)nc3ccccc23)CC1 [2-morpholino-4-(4-methylpiperazinyl)quinazoline dihydrochloride, dihydrate], the inhibition at 41.7 µg/mL [1, 4] was at least 20%.

Clc1ccc2nc(N3CCCCC3)nc(N3CCCCC3)c2c1 [2,4-bispiperidino-6-chloroquinazoline] was tested, and the inhibition at 167 µg/mL [1, 5] was 91% and the inhibition at 167 µg/mL [3] was 61%.

For CN1CCN(c2nc(N)c3ccccc3n2)CC1 [2-(4-methylpiperazinyl)-4-aminoquinazoline hydrochloride], the inhibition at 83.4 µg/mL [1, 6] was at least 20%.

Nc1nc(N2CCOCC2)nc2ccccc12 [2-morpholino-4-aminoquinazoline] was tested, and the inhibition at 41.7 µg/mL [1, 4] was at least 20%.

In the case of Cc1ccc2nc(N3CCOCC3)nc(N3CCOCC3)c2c1 [2,4-bismorpholino-6-methylquinazoline], the inhibition at 167 µg/mL [1, 5] is reported as 62% and the inhibition at 167 µg/mL [3] is reported as 29%.

2,4-bispyrrolidinylquinazoline was tested, and the “% Inhibition of Aggregation, Collagen” value ([1]; 2.6 μg/ml, collagen stock suspension undiluted) was at least 20%, the “% Inhibition of Aggregation, Collagen” value ([1]; 83.4 μg/ml, collagen stock suspension 1:4) was at least 20% and the “% Inhibition of Aggregation to Collagen Challenge” value ([2]; 12.5 mg/kg) was at least 20%.

CCN(CC)c1nc(N2CCOCC2)nc2ccccc12 [2-morpholino-4-diethylaminoquinazoline, 2-morpholino-4-diethylaminoquinazoline hydrochloride] gave an inhibition at 10.4 µg/mL [1, 4] of at least 20%.

For NCCNc1nc(N2CCOCC2)c2ccccc2n1 [2-(2-aminoethylamino)-4-morpholinoquinazoline dihydrochloride], the inhibition at 83.4 µg/mL [1, 6] was at least 20%.
